# “Also recorded” adds a separate entry of the source. Square brackets hold non-standard residues; d marks the D form. Ends that are not written are not given here. * marks the point of attachment. 125I = iodine-125 radiolabel, [125I]*; Aib = CC(C)(N)C(=O)O; For = O=C*
# T1: calcitonin receptors (Homo sapiens, UniProt P30988)
# T1 sequence (P30988 25-474): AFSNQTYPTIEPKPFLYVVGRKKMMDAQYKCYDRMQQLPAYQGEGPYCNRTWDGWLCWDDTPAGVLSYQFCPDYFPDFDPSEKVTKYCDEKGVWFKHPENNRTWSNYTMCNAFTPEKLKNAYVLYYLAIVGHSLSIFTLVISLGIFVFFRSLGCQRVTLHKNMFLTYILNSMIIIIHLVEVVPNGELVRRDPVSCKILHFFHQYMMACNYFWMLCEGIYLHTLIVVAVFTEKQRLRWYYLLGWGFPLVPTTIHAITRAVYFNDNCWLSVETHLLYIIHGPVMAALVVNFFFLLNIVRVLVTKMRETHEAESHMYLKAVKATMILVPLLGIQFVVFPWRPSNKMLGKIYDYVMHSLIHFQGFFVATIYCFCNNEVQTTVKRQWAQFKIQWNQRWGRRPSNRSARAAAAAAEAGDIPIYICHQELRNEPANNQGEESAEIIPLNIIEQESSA
# T2: amylin receptors (Rattus norvegicus, UniProt P32214)
# T2 sequence (P32214 25-516): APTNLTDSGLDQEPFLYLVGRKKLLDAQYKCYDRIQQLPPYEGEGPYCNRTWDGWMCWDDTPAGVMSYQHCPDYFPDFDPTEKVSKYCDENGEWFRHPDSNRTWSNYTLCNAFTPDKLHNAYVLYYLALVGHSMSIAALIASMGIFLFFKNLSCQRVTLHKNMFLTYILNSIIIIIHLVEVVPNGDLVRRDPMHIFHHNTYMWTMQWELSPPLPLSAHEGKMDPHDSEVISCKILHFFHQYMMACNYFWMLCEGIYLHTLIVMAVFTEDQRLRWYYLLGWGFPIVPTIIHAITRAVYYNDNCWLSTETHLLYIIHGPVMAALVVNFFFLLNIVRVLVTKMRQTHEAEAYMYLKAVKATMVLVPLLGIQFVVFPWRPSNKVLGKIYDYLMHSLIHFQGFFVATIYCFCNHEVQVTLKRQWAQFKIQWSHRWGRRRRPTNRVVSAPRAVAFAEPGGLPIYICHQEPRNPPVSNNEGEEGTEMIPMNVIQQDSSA
# T3: rat calcitonin C1a receptor (rat, UniProt P32214 25-516)
# T3 sequence (looked up): T2 sequence (P32214 25-516)
# T4: human calcitonin receptors (T47D and MCF7-7 breast carcinoma cells) (human, UniProt P30988 25-474)
# T4 sequence (looked up): T1 sequence (P30988 25-474)
# T5: amylin receptors of rat nucleus accumbens membranes (rat)
# T5 chain 1: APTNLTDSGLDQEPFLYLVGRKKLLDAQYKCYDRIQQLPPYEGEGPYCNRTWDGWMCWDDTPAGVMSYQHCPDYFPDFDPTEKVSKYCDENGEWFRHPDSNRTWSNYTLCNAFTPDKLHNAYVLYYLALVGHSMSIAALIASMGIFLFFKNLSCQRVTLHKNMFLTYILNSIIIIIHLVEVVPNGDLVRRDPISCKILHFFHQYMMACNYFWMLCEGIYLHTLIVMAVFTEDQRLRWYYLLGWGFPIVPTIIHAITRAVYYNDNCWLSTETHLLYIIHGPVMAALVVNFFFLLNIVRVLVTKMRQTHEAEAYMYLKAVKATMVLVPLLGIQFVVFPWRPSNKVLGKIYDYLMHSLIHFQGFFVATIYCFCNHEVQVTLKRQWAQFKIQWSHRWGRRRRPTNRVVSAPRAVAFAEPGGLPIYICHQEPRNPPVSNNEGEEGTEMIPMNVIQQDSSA
# T5 chain 2: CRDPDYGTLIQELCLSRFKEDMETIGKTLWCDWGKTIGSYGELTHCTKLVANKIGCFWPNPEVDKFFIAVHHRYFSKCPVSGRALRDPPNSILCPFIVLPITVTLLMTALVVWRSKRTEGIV
# B1: [^125I]salmon calcitonin (ligand, UniProt P01263 83-114, looked up)
# peptide: CSNLSTCVLGKLSQELHKLQTY(125I)PRTNTGSGTP
# modifications: ends and bridges not checked
# notes: mature; also called labeled salmon calcitonin
# Assays:
# [1] = Effect on plasma glucose, lactate and calcium levels in anesthetized rats; format: in vivo, rat; details: 100 μg subcutaneous
# calcitonin receptors [2] = molecular target: T1, calcitonin receptors; experiment: Binding to membranes from T47D cells (calcitonin receptors), displacement of [125I]salmon calcitonin; set-up: Membranes were prepared from confluent cultures of T47D cells; host or cells: T47D human breast carcinoma cells; details: for affinity for calcitonin receptors compared with amylin receptors: calcitonin (T47D) versus amylin (nucleus accumbens) receptors; for IC50: T47D membranes, mean ± SEM (n), read-out: Receptor IC50 in nM [mean ± SEM (n)] Calcitonin
# calcitonin receptors [3] = molecular target: T1, calcitonin receptors; experiment: Adenyl cyclase stimulation, cyclic AMP accumulation in MCF7-7 cells; format: cell-based
# [4] = system: effects of rat amylin on plasma levels of glucose, lactate and calcium; experiment: Effect on plasma glucose, lactate, calcium and mean arterial pressure in the presence of amylin, anesthetized rats; format: in vivo
# gastric emptying in rats = experiment: Phenol red gastric emptying assay in conscious rats; details: for inhibition of gastric emptying: conscious rat model, adrenomedullin at highest doses (100 μg); for ED50 inhibiting gastric emptying (FIG. 7): conscious rats; for dose at which suppression of gastric emptying was complete / ED50 for inhibition of gastric emptying: subcutaneous; for ED50 for inhibition of gastric emptying: normal (Harlan Sprague Dawley) rats, ±0.19 log units
# isolated soleus muscle = details: insulin 7.1 nM
# amylin receptors = molecular target: T2, amylin receptors; experiment: Binding to rat nucleus accumbens membranes (amylin receptors), displacement of 125I-BH-rat amylin; details: read-out: Receptor IC50 in nM [mean ± SEM (n)] Amylin
# CGRP receptors = molecular target: T6, CGRP receptors (Homo sapiens, UniProt O60894+Q16602); experiment: Binding to membranes from SK-N-MC cells (CGRP receptors), displacement of [125I]human-CGRP; details: read-out: Receptor IC50 in nM [mean ± SEM (n)] CGRP
# T6 construct: SK-N-MC cells (ATCC No. HTB-10) were homogenized in 50 mM Hepes buffer; host or cells: SK-N-MC human neuroblastoma cells
# [5] = molecular target: human calcitonin receptors (T47D and MCF7-7 breast carcinoma cells) (human) (UniProt P30988); experiment: cell-based or functional assay
# [6] = molecular target: T3, rat calcitonin C1a receptor; experiment: cell-based or functional assay
# [7] = molecular target: T4, human calcitonin receptors (T47D and …); experiment: cell-based or functional assay
# [8] = molecular target: T5, amylin receptors of rat nucleus …; experiment: radioligand competition, 125I-BH-rat amylin on rat nucleus accumbens membranes
# [9] = molecular target: T7, human CGRP receptors (SK-N-MC neuroblastoma cells) (human, UniProt Q16602 23-461; O60894 27-148); experiment: radioligand competition, SK-N-MC membranes against rat nucleus accumbens membranes
# T7 construct: whole, on cells; also called CGRP (SK-N-MC) receptors
# [10] = molecular target: T4, human calcitonin receptors (T47D and …); experiment: radioligand competition, [125I]salmon calcitonin on T47D cell membranes
# [11] = molecular target: T7, human CGRP receptors (SK-N-MC …); experiment: radioligand competition, [125I]human CGRP on SK-N-MC cell membranes
# [12] = molecular target: T4, human calcitonin receptors (T47D and …); experiment: radioligand Kd used to derive Ki, T47D cell membranes
# [13] = intravenous preinfusion of test compound, then rat amylin 50 μg bolus + 50 μg/hour, versus saline preinfusion
# T7 sequence (Q16602 23-461, chain 1 of 2): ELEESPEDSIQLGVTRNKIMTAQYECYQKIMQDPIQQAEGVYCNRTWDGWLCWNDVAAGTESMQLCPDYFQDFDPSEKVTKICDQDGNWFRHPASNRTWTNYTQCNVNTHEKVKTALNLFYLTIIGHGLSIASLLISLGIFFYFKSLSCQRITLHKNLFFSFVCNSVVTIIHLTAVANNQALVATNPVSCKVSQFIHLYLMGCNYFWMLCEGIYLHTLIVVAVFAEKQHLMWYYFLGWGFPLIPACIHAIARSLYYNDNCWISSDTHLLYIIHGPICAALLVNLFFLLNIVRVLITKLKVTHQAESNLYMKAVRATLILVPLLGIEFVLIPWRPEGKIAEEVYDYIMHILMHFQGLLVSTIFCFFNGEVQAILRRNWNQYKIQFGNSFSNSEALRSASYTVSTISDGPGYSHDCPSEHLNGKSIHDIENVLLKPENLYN
# T7 sequence (O60894 27-148, chain 2 of 2): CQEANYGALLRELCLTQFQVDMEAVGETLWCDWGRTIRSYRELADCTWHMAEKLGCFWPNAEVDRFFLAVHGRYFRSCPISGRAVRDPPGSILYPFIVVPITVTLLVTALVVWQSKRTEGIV
# T6 sequence (Q16602 23-461): as the sequence (Q16602 23-461, chain 1 of 2) above
# T6 sequence (O60894 27-148 partner): as the sequence (O60894 27-148, chain 2 of 2) above
molecule,measurement,setting,value
4-methylpentanoyl-Ser-Thr-Ala-Val-Leu-Aib-Lys(For)-Leu-Ser-Gln-Glu-Leu-Aib-Lys(For)-Leu-Gln-Thr-Tyr-Pro-Arg-Thr-Asn-Thr-Gly-Ser-Gly-Thr-Pro [Compound 2],plasma calcium concentration,[1],caused a fall in plasma calcium concentration
same,plasma glucose,[1],neither Compound 1 nor Compound 2 increased
same,plasma lactate,[1],neither Compound 1 nor Compound 2 increased
same,affinity for calcitonin receptors compared with amylin receptors,calcitonin receptors [2],greater affinity for calcitonin receptors than for amylin receptors
same,fold less potent than human calcitonin in stimulating adenyl cyclase activity,calcitonin receptors [3],3.5 fold
same,functional activity at calcitonin receptors,calcitonin receptors [3],partial agonist activity
same,increase in cyclic AMP as percent of the increase produced by human calcitonin,calcitonin receptors [3],approximately 20%
same,plasma calcium levels,"[4]; after infusion of test compound, with subsequent amylin infusion",A fall in plasma calcium levels
same,increase in plasma glucose after amylin administration,[4]; [13],smaller increases
same,increase in plasma lactate after amylin administration,[4]; [13],smaller increases
same,reversal of the blood pressure lowering effect of amylin (mean arterial pressure),"[4]; intravenous preinfusion of test compound, then rat amylin infusion",lack of ability of these compounds to reverse the blood pressure lowering effect of amylin
same,inhibition of gastric emptying,gastric emptying in rats,behaved as potent amylin and calcitonin agonists in inhibition of gastric emptying
same,"amylin antagonist activity, reversal of the effect of amylin on insulin-stimulated incorporation of glucose into glycogen","isolated soleus muscle; amylin 100 nM, test compound 1 μM",reversed
same,"amylin agonist activity, inhibition of insulin-stimulated incorporation of glucose into glycogen",isolated soleus muscle; test compound 100 nM,no discernable amylin agonist activity; also recorded: neither Compound 1 (100 nM) nor Compound 2 (100 nM) affected the response to insulin
"Adrenomedullin: observed to behave as a CGRP agonist but not as an amylin or calcitonin agonist (YRQSMNNFQGLRSFGCRFGTCTVQKLAHQIYQFTDKDKDNVAPRSKISPQGY; ends and bridges not checked; cysteine pairing not given here; UniProt P35318 95-146, looked up)",inhibition of gastric emptying,gastric emptying in rats,does not inhibit gastric emptying
LSTAVLGRLSQELHRLQTYPRTNTGSNTY [Compound 6],IC50,calcitonin receptors [2],0.56 nM
same,affinity for calcitonin receptors compared with amylin receptors,calcitonin receptors [2],greater affinity for calcitonin receptors than for amylin receptors
same,fold less potent than human calcitonin in stimulating adenyl cyclase activity,calcitonin receptors [3],80 fold
same,EC50,calcitonin receptors [3]; read-out: EC50 cyclic AMP accumulation / adenylyl cyclase activity,34 nM
same,IC50,amylin receptors,18.6 ± 5.3 nM
same,IC50,CGRP receptors,> 10000 nM
LSTSVLGRLSQELHRLQTYPRTNTGSNTY [Compound 3],IC50,calcitonin receptors [2],1.45 nM
same,affinity for calcitonin receptors compared with amylin receptors,calcitonin receptors [2],greater affinity for calcitonin receptors than for amylin receptors
same,IC50,amylin receptors,37 ± 4.6 nM
same,IC50,CGRP receptors,> 10000 nM
Leu-Ser-Thr-Ala-Val-Leu-Gly-Arg-Leu-Ser-Gln-Glu-Leu-His-Arg-Leu-Gln-Thr-Tyr-Pro-Arg-Thr-Asn-Thr-Gly-Ser-Asn-Thr-Tyr [Compound 4],fold less potent than human calcitonin in stimulating adenyl cyclase activity,calcitonin receptors [3],7 fold
Salmon calcitonin,inhibition of gastric emptying,gastric emptying in rats,dose-dependently inhibit gastric emptying
same,ED50 inhibiting gastric emptying (FIG. 7),gastric emptying in rats,0.12 μg/rat
human amylin (from UniProt P10997 34-70) (ligand),"fold less potent than calcitonin in stimulating adenyl cyclase activity, MCF7-7 cells",[5],5 fold
same,"fold less potent than calcitonin in stimulating adenyl cyclase activity, T47D cells",[5],7 fold
"rat amylin: Synthetic rat amylin (Bachem, Torrance, Calif.), positive control",plasma calcium concentration,[1],fall
same,plasma glucose,[1],increase
same,plasma lactate,[1],increase
same,dose at which suppression of gastric emptying was complete,gastric emptying in rats; diabetic rats,10 µg
same,ED50 for inhibition of gastric emptying,gastric emptying in rats; 5 minutes before gavage,0.43 µg
same,ED50 for inhibition of gastric emptying,gastric emptying in rats,0.60 nmol/kg
same,dose at which suppression of gastric emptying was complete,gastric emptying in rats; normal HSD rats,1 µg
rat calcitonin,inhibition of gastric emptying,gastric emptying in rats,dose-dependently inhibit gastric emptying
same,ED50 inhibiting gastric emptying (FIG. 7),gastric emptying in rats,0.41 μg/rat
LSTCVLGRLSQELHRLQTYPRTNTGSNTY (Synthetic 29-residue peptide) [Compound 1],"EC50 of adenyl cyclase activity, cells expressing rat calcitonin C1a receptors",[6],0.97 nM
same,"EC50 of cyclic AMP accumulation, T47D cells",[7],2.2 nM
same,IC50,[8],0.25 nM
same,fold lower affinity than for the amylin receptors,[9],≥ 300 fold
same,IC50,[10],0.22 nM
same,IC50,[11],160 nM
XLSTSVLGRLSQELHRLQTYPRTNTGSNTY (N-terminal acetyl (Ac-Leu)) [Compound 3],IC50,[8],37 nM
same,fold lower affinity than for the amylin receptors,[9],≥ 300 fold
same,IC50,[10],1.45 nM
XLSTAVLGRLSQELHRLQTYPRTNTGSNTY (N-terminal acetyl (Ac-Leu)) [Compound 6],"EC50 of adenylyl cyclase stimulation, MCF7-7 cells",[7],34 nM
same,"fold lower potency than human calcitonin, MCF7-7 cells",[7],80 fold
same,IC50,[8],18.6 nM
same,fold lower affinity than for the amylin receptors,[9],≥ 300 fold
same,IC50,[10],0.56 nM
VL[Aib]K(For)LSQEL[Aib]K(For)LQTYPRTNTGSNTY-NH2 [Compound 8],IC50,[10],93 nM
B1,Kd,[12],0.019 nM
